# Assay results taken from patent US20130190407A1, “CALCIUM RECEPTOR-ACTIVE MOLECULES” (NPS Pharmaceuticals, Inc., priority 1991, published 2013).
# Tested on: healthy, post-menopausal person
# Experiment: Placebo-controlled single-dose, dose-escalation study in a human
# Format: in vivo
# From the text: A range of single oral doses was used to assess safety, tolerance, and changes in primary hyperparathyroidism markers (e.g., plasma concentrations of parathyroid hormone and ionized serum calcium) and of serum calcitonin.
structure (smiles),measurement,setting,value
"COc1cccc([C@@H](C)NCCCc2ccccc2Cl)c1 [NPS R-568, (R)-(+)-N-[3-(2-chlorophenyl)propyl]-α-methyl-3-methoxybenzylamine]",Serum PTH,"20 mg single oral dose, 1 h",18 pg/mL
same,Serum PTH,"240 mg single oral dose, 0.5 h",18 pg/mL
same,serum ionized calcium concentration,at higher doses,decrease in serum ionized calcium concentration
same,serum calcitonin,at the doses studied,no apparent change in serum calcitonin
same,plasma PTH concentration,single oral doses,transient dose-dependent decrease in plasma PTH concentration
